# Measured values reported in patent US8232275B2, “2,2-bis-(hydroxymethyl)cyclopropylidenemethyl-purines and -pyrimidines as antiviral agents” (Wayne State University, priority 2002, dated 2012).
# Marks after values point to notes of the source that are not given here.
# Test system: KB cells
# Experiment: Cytotoxicity in KB cells, growth during two population doublings (crystal violet)
# Type: cell-based
# Details: cytotoxicity, KB cell growth
# Experimental: (§1) Cytotoxicity assays. Two different assays were used to explore cytotoxicity of selected compounds as we have detailed previously. (i) Cytotoxicity produced in stationary HFF cells was determined by microscopic inspection of cells used in plaque assays which were not affected by the virus. Turk, S. R., et al., Antimicrob. Agents Chemother. 31:544-550 (1987). (ii) The effect of compounds during two population doublings of KB cells was determined by crystal violet staining and spectrophotometric quantitation of dye eluted from stained cells. Prichard, M. N., et al., Antimicrob. Agents Chemother. 35:1060-1065 (1991). Data Analysis. Dose-response relationships were constructed by linearly regressing the percent inhibition of parameters derived in the preceding sections against log drug concentrations. Fifty-percent inhibitory (IC50) concentrations were calculated from the regression lines. Samples containing positive controls (acyclovir for HSV-1, ganciclovir for HCMV, and 2-acetylpyridine thiosemicarbazone for cytotoxicity) were used in all assays. Results from sets of assays were rejected if inhibition by the positive control deviated from its mean response by >±1.5 standard deviations.
row,Structure (SMILES),IC50 (μM) KB (growth)
1,"Nc1nc2c(ncn2COCCO)c(=O)[nH]1 [Acyclovir, reference compound]",>100 ^b μM

# Same assay, conditions: human
row,Structure (SMILES),IC50 (μM) KB (growth) [µM]
1,"Nc1ncnc2c1ncn2/C=C1/CC1(CO)CO [Compound 1a, (Z)-9-{(2,2-Bis-(hydroxymethyl)cyclopropylidene)methyl}-adenine]",>100
2,"Nc1nc2c(ncn2/C=C2/CC2(CO)CO)c(=O)[nH]1 [Compound 1c, (Z)-9-{[2,2-Bis-(hydroxymethyl)cyclopropylidene]methyl}-guanine]",>100
3,"Nc1ccn(/C=C2/CC2(CO)CO)c(=O)n1 [Compound 1e, (Z)-1-{[2,2-Bis-(hydroxymethyl)cyclopropylidene]methyl}-cytosine]",>100
4,"Cc1cn(/C=C2/CC2(CO)CO)c(=O)[nH]c1=O [Compound 1f, (Z)-1-{[2,2-Bis-(hydroxymethyl)cyclopropylidene]methyl}-thymine]",>100
5,"COc1nc(N)nc2c1ncn2/C=C1/CC1(CO)CO [Compound 1g, (Z)-2-amino-6-methoxy-9-{[2,2-bis-(hydroxymethyl)cyclopropylidene]-methyl}purine]",>100
6,"Nc1nc(N)c2ncn(/C=C3/CC3(CO)CO)c2n1 [Compound 1o, (Z)-2,6-Diamino-9-{[2,2-bis-(hydroxymethyl)cyclopropylidene]-methyl}-purine]",>100
7,"Nc1nc2c(ncn2/C=C2\CC2(CO)CO)c(=O)[nH]1 [Compound 2c, (E)-9-{[2,2-Bis-(hydroxymethyl)cyclopropylidene]methyl}-guanine]",>100

# Test system: HSV-1
# Experiment: HSV-1 ELISA in BSC-1 cells
# Type: cell-based, herpes simplex virus type 1 (HSV-1)
# Details: Human alphaherpesvirus 1
# Experimental: (§2) Cells and viruses. The routine growth and passage of KB cells was performed in monolayer cultures using minimal essential medium (MEM) with either Hanks salts [MEM(H)] or Earle salts [MEM(E)] supplemented with 10% calf serum. The sodium bicarbonate concentration was varied to meet the buffering capacity required. Cultures of diploid human foreskin fibroblasts (HFF) or MRC-5 cells were grown in medium consisting of MEM(E) with 10% fetal bovine serum. Cells were passaged at 1:2 to 1:10 dilutions according to conventional procedures by using 0.05% trypsin plus 0.02% EDTA in a HEPES buffered salt solution (HBS) (Shipman, C., Jr., Proc. Soc. Exp. Biol. 130:305-310 (1969)) as described previously. Turk, S. R., et al., Antimicrob. Agents Chemother. 31:544-550 (1987). HFF and MRC-5 cells were passaged only at 1:2 dilutions. CEM cells were maintained in suspension culture as detailed previously. Kucera, L. S., et al., AIDS Res. Human Retroviruses 9:307-314 (1993).
# (§3) Virological procedures. Stock HCMV was prepared by infecting HFF cells at a multiplicity of infection (m.o.i.) of <0.01 plaque-forming units (p.f.u.) per cell. Cell growth medium was changed every four days until cytopathology was evident in all cells (approximately 21 days). Supernatant fluids were retained as the virus stock. High titer HSV-1 stocks were prepared by infecting KB cells at an m.o.i. of <0.1 as detailed previously. Turk, S. R., et al., Antimicrob. Agents Chemother. 31:544-550 (1987). Virus titers were determined using monolayer cultures of HFF cells for HCMV and monolayer cultures of BSC-1 cells for HSV-1 as described earlier. Prichard, M. N. et al., J. Virol. Methods 28:101-106 (1990). Briefly, HFF or BSC-1 cells were planted as described above in 96-well cluster dishes and incubated overnight at 37° C. in a humidified 3% CO2-97% air atmosphere. The next day cultures were inoculated with HCMV or HSV-1 and serially diluted 1:3 across the remaining eleven columns of the 96-well plate. Cultures were incubated at 37° C. for 2 hr to permit virus adsorption and then virus inoculum was replaced with 0.2 mL of fresh medium. Cultures were incubated for seven days for HCMV, two or three days for HSV-1, medium was removed, and the cell sheets were stained with 0.1% crystal violet in 20% methanol. Plaques were enumerated under 20-fold magnification in wells having the dilution which gave 5 to 20 plaques per well. Virus titers were calculated according to the following formula: Titer (p.f.u./mL)=number of plaques×5×3^n; where n represents the nth dilution of the virus used to infect the well in which plaques were enumerated.
# Assays for Antiviral Activity. (b) HSV-1. An enzyme-linked immunosorbent assay (ELISA) was employed to detect HSV-1. 96-well cluster dishes were planted with BSC-1 cells at 10,000 cells per well, in a total volume of 200 μL per well of MEM(E) plus 10% calf serum. After overnight incubation at 37° C., drug and HSV-1 was added at the rate of 100 PFU/well. ELISA plates were blocked with 200 μL per well of 10% calf serum and 0.05% tween in HBS. After incubation for 30 minutes, the blocking agent was rinsed two times with HBS-T. A 1:400 dilution of AP conjugated rabbit anti-HSV-1 antibody in HBS-F was added. Plates were sealed with adhesive sheet, and incubated on rocker for one hour at 37° C. Plates were developed in the dark with […] per well of substrate solution containing p-nitrophenyl phosphate. Plates were read at 492 nm. Drug effects were calculated as a percentage of the reduction in virus in the presence of each drug concentration compared to the titer obtained in the absence of drug. Acyclovir was used as a positive control in all experiments.
# (§4) Data Analysis. Dose-response relationships were constructed by linearly regressing the percent inhibition of parameters derived in the preceding sections against log drug concentrations. Fifty-percent inhibitory (IC50) concentrations were calculated from the regression lines. […]
row,Structure (SMILES),IC50 [µM]
1,"Nc1nc2c(ncn2COCCO)c(=O)[nH]1 [Acyclovir, reference compound]",0.15
2,"Nc1ncnc2c1ncn2/C=C1/CC1(CO)CO [Compound 1a, (Z)-9-{(2,2-Bis-(hydroxymethyl)cyclopropylidene)methyl}-adenine]",50
3,"Nc1nc2c(ncn2/C=C2/CC2(CO)CO)c(=O)[nH]1 [Compound 1c, (Z)-9-{[2,2-Bis-(hydroxymethyl)cyclopropylidene]methyl}-guanine]",> 100
4,"Nc1ccn(/C=C2/CC2(CO)CO)c(=O)n1 [Compound 1e, (Z)-1-{[2,2-Bis-(hydroxymethyl)cyclopropylidene]methyl}-cytosine]",> 100
5,"Cc1cn(/C=C2/CC2(CO)CO)c(=O)[nH]c1=O [Compound 1f, (Z)-1-{[2,2-Bis-(hydroxymethyl)cyclopropylidene]methyl}-thymine]",10
6,"COc1nc(N)nc2c1ncn2/C=C1/CC1(CO)CO [Compound 1g, (Z)-2-amino-6-methoxy-9-{[2,2-bis-(hydroxymethyl)cyclopropylidene]-methyl}purine]",> 100
7,"Nc1nc(N)c2ncn(/C=C3/CC3(CO)CO)c2n1 [Compound 1o, (Z)-2,6-Diamino-9-{[2,2-bis-(hydroxymethyl)cyclopropylidene]-methyl}-purine]",> 100
8,"Nc1nc2c(ncn2/C=C2\CC2(CO)CO)c(=O)[nH]1 [Compound 2c, (E)-9-{[2,2-Bis-(hydroxymethyl)cyclopropylidene]methyl}-guanine]",39

# Test system: not given
# Experiment: not given
# Details: not given
row,Structure (SMILES),melting point [°C]
1,"Nc1ccn(/C=C2/CC2(CO)CO)c(=O)n1 [Compound 1e, (Z)-1-{[2,2-Bis-(hydroxymethyl)cyclopropylidene]methyl}-cytosine]",250 to 253
2,"COc1nc(N)nc2c1ncn2/C=C1/CC1(CO)CO [Compound 1g, (Z)-2-amino-6-methoxy-9-{[2,2-bis-(hydroxymethyl)cyclopropylidene]-methyl}purine]",188 to 189
3,"Nc1nc(NC2CC2)c2ncn(/C=C3/CC3(CO)CO)c2n1 [Compound 1h, (Z)-2-Amino-6-cyclopropylamino-9-{[2,2-bis-(hydroxymethyl)-cyclopropylidene]methyl}purine]",195 to 196
4,"Nc1nc(N)c2ncn(/C=C3/CC3(CO)CO)c2n1 [Compound 1o, (Z)-2,6-Diamino-9-{[2,2-bis-(hydroxymethyl)cyclopropylidene]-methyl}-purine]",249 to 250
5,"Nc1ccn(/C=C2\CC2(CO)CO)c(=O)n1 [Compound 2e, (E)-1-{[2,2-bis-(hydroxymethyl)cyclopropylidene]methyl}cytosine]",249 to 251
6,"COc1nc(N)nc2c1ncn2/C=C1\CC1(CO)CO [Compound 2g, (E)-2-amino-6-methoxy-9-{[2,2-bis-(hydroxymethyl)cyclopropylidene]-methyl}purine]",179 to 180
7,"Nc1nc(NC2CC2)c2ncn(/C=C3\CC3(CO)CO)c2n1 [Compound 2h, (E)-2-Amino-6-cyclopropylamino-9-{[2,2-bis-(hydroxymethyl)-cyclopropylidene]methyl}purine]",164 to 165
8,"Nc1nc(N)c2ncn(/C=C3\CC3(CO)CO)c2n1 [Compound 2o, (E)-2,6-Diamino-9-{[2,2-bis-(hydroxymethyl)cyclopropylidene]-methyl}purine]",219 to 220

# Test system: not listed separately
# Experiment: Cytotoxicity in stationary HFF cells, microscopic (visual) inspection
# Type: cell-based
# Details: human, stationary HFF cells (uninfected cells of the plaque assays), read-out: IC50 (μM) HFF (visual)
# Experimental: as §1
row,Structure (SMILES),CC50 [µM]
1,"Nc1ncnc2c1ncn2/C=C1/CC1(CO)CO [Compound 1a, (Z)-9-{(2,2-Bis-(hydroxymethyl)cyclopropylidene)methyl}-adenine]",> 100
2,"Nc1nc2c(ncn2/C=C2/CC2(CO)CO)c(=O)[nH]1 [Compound 1c, (Z)-9-{[2,2-Bis-(hydroxymethyl)cyclopropylidene]methyl}-guanine]",> 100
3,"Nc1ccn(/C=C2/CC2(CO)CO)c(=O)n1 [Compound 1e, (Z)-1-{[2,2-Bis-(hydroxymethyl)cyclopropylidene]methyl}-cytosine]",> 100
4,"Cc1cn(/C=C2/CC2(CO)CO)c(=O)[nH]c1=O [Compound 1f, (Z)-1-{[2,2-Bis-(hydroxymethyl)cyclopropylidene]methyl}-thymine]",> 100
5,"COc1nc(N)nc2c1ncn2/C=C1/CC1(CO)CO [Compound 1g, (Z)-2-amino-6-methoxy-9-{[2,2-bis-(hydroxymethyl)cyclopropylidene]-methyl}purine]",> 100
6,"Nc1nc(N)c2ncn(/C=C3/CC3(CO)CO)c2n1 [Compound 1o, (Z)-2,6-Diamino-9-{[2,2-bis-(hydroxymethyl)cyclopropylidene]-methyl}-purine]",> 100
7,"Nc1nc2c(ncn2/C=C2\CC2(CO)CO)c(=O)[nH]1 [Compound 2c, (E)-9-{[2,2-Bis-(hydroxymethyl)cyclopropylidene]methyl}-guanine]",> 100
8,"Nc1nc(O)c2ncn(COC(CO)CO)c2n1 [Ganciclovir, reference compound]",> 100

# Test system: HCMV
# Experiment: HCMV plaque reduction assay in HFF cells
# Type: cell-based, human cytomegalovirus (HCMV)
# Details: Human betaherpesvirus 5, HFF host cells
# Experimental: as §2, §3
# Assays for Antiviral Activity. (a) HCMV. The effect of compounds on the replication of HCMV has been measured using a plaque reduction assay. HFF cells in 24-well cluster dishes were infected with approximately 100 p.f.u. of HCMV per cm^2 cell sheet using the procedures detailed above. Following virus adsorption, compounds dissolved in growth medium were added to duplicate wells in three to six selected concentrations. Following incubation at 37° C. for 7 to 10 days, cell sheets were fixed, stained with crystal violet and microscopic plaques enumerated as described above. Drug effects were calculated as a percentage of reduction in number of plaques in the presence of each drug concentration compared to the number observed in the absence of drug. Ganciclovir (DHPG) was used as a positive control in all experiments.
# as §4, with “lines. Samples containing positive controls (acyclovir for HSV-1, ganciclovir for HCMV, and 2-acetylpyridine thiosemicarbazone for cytotoxicity) were used in all assays.” for “lines.”
row,Structure (SMILES),IC50 [µM]
1,"Nc1ncnc2c1ncn2/C=C1/CC1(CO)CO [Compound 1a, (Z)-9-{(2,2-Bis-(hydroxymethyl)cyclopropylidene)methyl}-adenine]",3.6
2,"Nc1nc2c(ncn2/C=C2/CC2(CO)CO)c(=O)[nH]1 [Compound 1c, (Z)-9-{[2,2-Bis-(hydroxymethyl)cyclopropylidene]methyl}-guanine]",0.46
3,"Nc1ccn(/C=C2/CC2(CO)CO)c(=O)n1 [Compound 1e, (Z)-1-{[2,2-Bis-(hydroxymethyl)cyclopropylidene]methyl}-cytosine]",32
4,"Cc1cn(/C=C2/CC2(CO)CO)c(=O)[nH]c1=O [Compound 1f, (Z)-1-{[2,2-Bis-(hydroxymethyl)cyclopropylidene]methyl}-thymine]",> 100
5,"COc1nc(N)nc2c1ncn2/C=C1/CC1(CO)CO [Compound 1g, (Z)-2-amino-6-methoxy-9-{[2,2-bis-(hydroxymethyl)cyclopropylidene]-methyl}purine]",3.5
6,"Nc1nc(N)c2ncn(/C=C3/CC3(CO)CO)c2n1 [Compound 1o, (Z)-2,6-Diamino-9-{[2,2-bis-(hydroxymethyl)cyclopropylidene]-methyl}-purine]",15
7,"Nc1nc2c(ncn2/C=C2\CC2(CO)CO)c(=O)[nH]1 [Compound 2c, (E)-9-{[2,2-Bis-(hydroxymethyl)cyclopropylidene]methyl}-guanine]",> 100
8,"Nc1nc(O)c2ncn(COC(CO)CO)c2n1 [Ganciclovir, reference compound]",4.1
